Patent publication US20260345547A1, “USE OF DIHYDROQUERCETIN IN TREATING OCULAR SURFACE DISEASES” (HE UNIVERSITY SCHOOL OF CLINICAL MEDICINE, priority 2022, published 2026)
Where “and” joins values, the source holds several entries; their conditions need not be identical. Equal values may be shown once.

Columns and labels:
[1] = test system: human corneal epithelial (HCE) cells; test: MTS assay: survival rate of HCE cells treated with H2O2 (damage model); assay type: cell-based; details: 300 μM H2O2, 24 h, relative to normal cell group
Experimental: Human corneal epithelial cells were purchased from the American Type Culture Collection (ATCC). The cell medium used was high-sugar DMEM medium supplemented with 10% (V/V) fetal bovine serum, 100 U/mL penicillin, and 100 μg/mL gentamicin. The cells were cultured in an incubator containing 5% carbon dioxide at 37° C. Cells in the logarithmic growth phase were seeded into a 96-well plate at a density of 1.5×10^5 cells/mL, with 100 μL per well and 6 replicate wells per group. The cells were grouped into a normal cell group, a hydrogen peroxide model group, and intervention groups treated with dihydroquercetin at various concentrations. The assay was performed using an MTS kit (e.g., Promega), and absorbance was measured at 490 nm using a microplate reader. […]
Human corneal epithelial cells were purchased from the American Type Culture Collection (ATCC). […] To measure the colorimetric results, the absorbance value of each well was read at the wavelength of 490 nm using an enzyme-linked immunosorbent assay reader. The results were recorded, and a cell growth curve was plotted with time as the abscissa and absorbance value as the ordinate.
HCE cells were subcultured and seeded at 1.5×10^5 cells/mL, with 100 μL per well. […] To measure the colorimetric results, the absorbance value of each well was read at the wavelength of 490 nm using an enzyme-linked immunosorbent assay reader. […]

[2] = test system: HCE cells (H2O2-induced oxidative damage); test: MTS assay: anti-oxidative damage effect on HCE cells with H2O2-induced damage; assay type: cell-based, human
Experimental: (§1) Human corneal epithelial cells were purchased from the American Type Culture Collection (ATCC). The cell medium used was high-sugar DMEM medium supplemented with 10% (V/V) fetal bovine serum, 100 U/mL penicillin, and 100 μg/mL gentamicin. The cells were cultured in an incubator containing 5% carbon dioxide at 37° C. Cells in the logarithmic growth phase were seeded into a 96-well plate at a density of 1.5×10^5 cells/mL, with 100 μL per well and 6 replicate wells per group. The cells were grouped into a normal cell group, a hydrogen peroxide model group, and intervention groups treated with dihydroquercetin at various concentrations. The assay was performed using an MTS kit (e.g., Promega), and absorbance was measured at 490 nm using a microplate reader.
(§2) Survival rate=survival rate of each group/survival rate of normal cell group×100%
Human corneal epithelial cells were purchased from the American Type Culture Collection (ATCC). The cell medium used was high-sugar DMEM medium supplemented with 10% (V/V) fetal bovine serum, 100 U/mL penicillin, and 100 μg/mL gentamicin. The cells were cultured in an incubator containing 5% carbon dioxide at 37° C. Cells in the logarithmic growth phase were seeded into a 96-well plate at a density of 1.5×10^5 cells/mL, with 100 μL per well and 6 replicate wells per group. After 24 h, the cells were treated with H2O2 or dihydroquercetin according to the experimental purpose. […] To measure the colorimetric results, the absorbance value of each well was read at the wavelength of 490 nm using an enzyme-linked immunosorbent assay reader. The results were recorded, and a cell growth curve was plotted with time as the abscissa and absorbance value as the ordinate.
The experiment included 8 groups: a normal control group, a H2O2 model group, and intervention groups treated with various concentrations of dihydroquercetin (0.1-200 μM)+H2O2. […] The survival rate of cells in each group was assessed by the MTS assay to evaluate the protective effect of dihydroquercetin against oxidative damage of HCE cells.

mouse model of dry eye [3] = test: Sodium fluorescein staining of cornea (corneal epithelial damage) in dry eye mice; assay type: in vivo, C57/BL6 mice; details: day 14 of modeling
Description: (§3) Out of 50 healthy 8-week-old female C57/BL6 mice, 30 were selected for the experiment. Five mice were randomly assigned to each group, resulting in a total of six groups: blank control group (N), model group (M), positive drug group (CsA), low concentration traditional Chinese medicine group (SL), medium concentration traditional Chinese medicine group (SM), and high concentration traditional Chinese medicine group (SH). During grouping, identification was marked on the mice's tails and cage cards, which included details such as the experiment name, experiment number, group designation, administration dosage, and administration schedule.
(§4) In this experiment, a mouse model of dry eye was established using an intelligent dry environment control system in combination with scopolamine injection. A two-step dehumidification method was used to control the humidity of the environment during the modeling process. […]
The corneal morphology of experimental mice in each group was observed before modeling and 14 days after modeling. […] The sodium fluorescein-stained corneas of the mice were then illuminated with cobalt blue light, observed, imaged and recorded with a slit lamp. […] Sodium fluorescein residues on the corneal surface was scored and recorded. The data were analyzed statistically using GraphPad Prism 8.0 software.

mouse model of dry eye [4] = test: Tear secretion amount (phenol red cotton thread) in dry eye mice; assay type: in vivo, C57/BL6 mice; details: 5 μL drops twice daily, ocular, day 14 of modeling, compared to model control group, P<0.001
Description: as §3
as §4, with “process. Initially, a temperature-adjustable industrial dehumidifier was used to reduce the room humidity to 40%±5%.” for “process.”
The mice were restrained without anesthesia. […] The thread was then placed on a printable ruler, and the length of the red-stained portion was measured and recorded. The data were analyzed statistically using GraphPad Prism 8.0 software. […]

HCE cells = test: MTS assay: proliferative and toxic effects of dihydroquercetin on HCE cells; assay type: cell-based, human; details: 24 h; for cell viability of HCE cells: compared to control group
Experimental: as §1, §2
Human corneal epithelial cells were purchased from the American Type Culture Collection (ATCC). The cell medium used was high-sugar DMEM medium supplemented with 10% (V/V) fetal bovine serum, 100 U/mL penicillin, and 100 μg/mL gentamicin. The cells were cultured in an incubator containing 5% carbon dioxide at 37° C. Cells in the logarithmic growth phase were seeded into a 96-well plate at a density of 1.5×10^5 cells/mL, with 100 μL per well and 6 replicate wells per group. After 24 h, the cells were treated with H2O2 or dihydroquercetin according to the experimental purpose. For color development, 20 μL of MTS solution was added to each well, and the cells were incubated for another 2-4 h. To measure the colorimetric results, the absorbance value of each well was read at the wavelength of 490 nm using an enzyme-linked immunosorbent assay reader. The results were recorded, and a cell growth curve was plotted with time as the abscissa and absorbance value as the ordinate.
Various concentrations of dihydroquercetin (0.01-600 μM) were applied to HCE cells, and 6 replicate wells were set for each group to ensure the reliability and accuracy of the experimental data. The proliferative effect of the drug on the cells was then assessed.

[5] = test system: corneal neovascularization model in rabbits; test: Corneal neovascularization after corneal alkali burn in rabbits; assay type: in vivo, New Zealand rabbits; details: 50 μL twice daily, ocular, 14 days after treatment, compared to model group; for corneal neovascularization area: P<0.01
Description: […] 3-month-old healthy New Zealand rabbits, half male and half female, were randomly assigned to six groups, with each group containing six rabbits. The groups were designated as blank control group (N), model control group (M), positive drug group (LEV), low concentration dihydroquercetin group (E1), high concentration dihydroquercetin group (E2) and solvent control group (R). Identification was marked on the rabbits' ears and cage cards, which included details such as the experiment name, experiment number, group designation, administration dosage, and administration schedule.
In this experiment, the corneal neovascularization model in rabbits was established using a chemical injury method. The rabbits were generally anesthetized with an intravenous injection of 1% pentobarbital sodium administered via the marginal ear vein. […] A 6 mm diameter filter paper was soaked in a 1 mol/L NaOH solution for 1 minute. The soaked filter paper was then applied to the center of the cornea for 30 seconds, after which it was removed. The ocular surface and conjunctival sac were subsequently rinsed with physiological saline for 1 minute. Following the modeling procedure, levofloxacin was applied as eye drops to the modeled eye to prevent postoperative infection.
The route of administration was ocular, and treatment commenced the day before modeling. No drug was administered to the blank control group or model control group. In the positive drug group, 50 μL of levofloxacin was applied to the conjunctival sac. In the low concentration group, 50 μL of a 0.03% dihydroquercetin solution was applied, while in the high concentration group, 50 μL of a 0.3% dihydroquercetin solution was applied. All treatments were administered twice daily at 9:00 a.m. and 3:00 p.m.
Fourteen days after treatment, ocular surface inflammation and neovascularization were assessed in each experimental group. The area of neovascularization was imaged, recorded, and subsequently quantified. Data were analyzed statistically using GraphPad Prism 8.0 software.

mouse model of dry eye [6] = test: Tear film breakup time in dry eye mice; assay type: in vivo, C57/BL6 mice; details: treatment groups (0.03% and 0.3%), ocular; day 14 of modeling; compared to model control group, P<0.05
Description: as §3
as §4, with “process. Initially, a temperature-adjustable industrial dehumidifier was used to reduce the room humidity to 40%±5%.” for “process.”
The mice were restrained without anesthesia, and sodium fluorescein solution was instilled into their conjunctival sacs. […] The time until the appearance of a block spot due to tear film breakup was recorded. […] The data were analyzed statistically using GraphPad Prism 8.0 software. […]

## OO [H2O2, hydrogen peroxide, reference compound]
[1]
  viability at 300 µM: 49%
[2]; 300 μM H2O2, compared to control group, P<0.001
  cell survival rate, H2O2 model group: lower

## O=C1c2c(O)cc(O)cc2O[C@H](c2ccc(O)c(O)c2)[C@H]1O [dihydroquercetin]
Mouse model of dry eye [3]; compared to model control group
  sodium fluorescein staining of cornea (morphology): significant reduction in staining
Mouse model of dry eye [3]; treatment groups (0.03% and 0.3%), ocular, compared to model group, P<0.001
  corneal epithelial damage score, sodium fluorescein staining: significant reduction in damage
Mouse model of dry eye [4]; high concentration group (E2), 0.3%
  tear secretion: significantly increased
Mouse model of dry eye [4]; low concentration group (E1), 0.03%
  tear secretion: significantly increased
HCE cells; 50 μM
  cell viability of HCE cells: significantly higher
HCE cells; 100 μM
  cell viability of HCE cells: significantly higher
HCE cells; 200 μM
  cell viability of HCE cells: significantly higher
HCE cells; 600 μM
  cell viability of HCE cells: significantly reduced
HCE cells; MTS assay
  concentration that has a proliferation effect on HCE cells: 25 to 200 µM and 50 to 200 µM
  concentration with toxic effect on HCE cells: 600 µM
[2]; 300 μM H2O2, MTS assay
  concentration offering protection against H2O2-induced oxidative stress damage in HCE cells: 25 to 200 µM
[2]; 25-200 μM with 300 μM H2O2, compared to H2O2 model group, P<0.01
  cell survival rate, dihydroquercetin + H2O2: higher
[5]; high concentration, 0.3%
  new blood vessels (slit lamp morphology): fewer new blood vessels
  corneal neovascularization area: smaller
[5]; low concentration, 0.03%
  new blood vessels (slit lamp morphology): fewer new blood vessels
  corneal neovascularization area: smaller
Mouse model of dry eye [6]
  tear film breakup time: increased significantly

## C[C@H]1COc2c(N3CCN(C)CC3)c(F)cc3c(=O)c(C(=O)O)cn1c23 [levofloxacin, reference compound]
[5]
  new blood vessels (slit lamp morphology): fewer new blood vessels
  corneal neovascularization area: smaller
